Blank lines part the entries; values can stand above or below the compound they belong to.
Experiments:
[1] = biological target: T1, Tyrosine-protein phosphatase non-receptor type 11 (Homo sapiens, UniProt Q06124); experiment: Inhibition of SHP2 ( 1 to 525 residues) (unknown origin)
T1 sequence (Q06124 whole entry): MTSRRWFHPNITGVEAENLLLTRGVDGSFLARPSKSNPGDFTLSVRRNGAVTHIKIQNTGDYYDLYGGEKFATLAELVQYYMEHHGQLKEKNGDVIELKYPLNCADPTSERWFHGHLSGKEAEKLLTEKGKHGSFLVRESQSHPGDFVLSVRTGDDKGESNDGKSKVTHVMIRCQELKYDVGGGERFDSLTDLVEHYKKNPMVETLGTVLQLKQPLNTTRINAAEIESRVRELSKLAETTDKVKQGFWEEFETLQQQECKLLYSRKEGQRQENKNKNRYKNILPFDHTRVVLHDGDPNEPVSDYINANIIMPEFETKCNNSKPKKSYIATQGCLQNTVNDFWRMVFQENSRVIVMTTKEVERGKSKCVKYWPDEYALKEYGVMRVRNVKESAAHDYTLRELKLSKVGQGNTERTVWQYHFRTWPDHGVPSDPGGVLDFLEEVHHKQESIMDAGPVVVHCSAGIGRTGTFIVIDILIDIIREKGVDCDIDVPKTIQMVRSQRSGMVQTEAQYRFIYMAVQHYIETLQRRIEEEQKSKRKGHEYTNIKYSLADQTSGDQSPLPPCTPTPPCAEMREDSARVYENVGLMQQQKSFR

[2] = biological target: T2, Tyrosine-protein phosphatase non-receptor type 1 (Homo sapiens, UniProt P18031); experiment: Inhibition of PTP1B (unknown origin)
T2 sequence (P18031 whole entry): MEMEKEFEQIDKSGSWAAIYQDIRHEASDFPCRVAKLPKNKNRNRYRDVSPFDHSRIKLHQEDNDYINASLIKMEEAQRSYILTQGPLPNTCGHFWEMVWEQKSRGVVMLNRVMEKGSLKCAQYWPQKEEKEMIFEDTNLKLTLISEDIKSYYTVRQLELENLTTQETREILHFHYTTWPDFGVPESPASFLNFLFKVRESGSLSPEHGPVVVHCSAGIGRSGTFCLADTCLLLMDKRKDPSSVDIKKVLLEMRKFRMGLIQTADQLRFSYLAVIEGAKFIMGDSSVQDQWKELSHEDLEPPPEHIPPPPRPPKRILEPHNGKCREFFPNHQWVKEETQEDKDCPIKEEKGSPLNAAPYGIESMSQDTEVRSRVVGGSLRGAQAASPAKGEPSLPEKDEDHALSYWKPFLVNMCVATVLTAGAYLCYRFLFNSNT

[3] = biological target: T3, Tyrosine-protein phosphatase non-receptor type 6 (Homo sapiens, UniProt P29350); experiment: Inhibition of SHP1 (unknown origin)
[4] = biological target: T3, Tyrosine-protein phosphatase non-receptor type 6
Description: Inhibition of recombinant GST-fused human SHP1 (205 to 597 residues) using DiFMUP as substrate incubated for 30 mins by fluorescence based assay

[5] = biological target: T2, Tyrosine-protein phosphatase non-receptor type 1; experiment: Inhibition of recombinant GST-fused human PTP1B (1 to 435 residues) using DiFMUP as substrate incubated for 30 mins by fluorescence based assay
[6] = biological target: T1, Tyrosine-protein phosphatase non-receptor type 11
Description: Inhibition of SHP2 (unknown origin)

T3 sequence (P29350 whole entry): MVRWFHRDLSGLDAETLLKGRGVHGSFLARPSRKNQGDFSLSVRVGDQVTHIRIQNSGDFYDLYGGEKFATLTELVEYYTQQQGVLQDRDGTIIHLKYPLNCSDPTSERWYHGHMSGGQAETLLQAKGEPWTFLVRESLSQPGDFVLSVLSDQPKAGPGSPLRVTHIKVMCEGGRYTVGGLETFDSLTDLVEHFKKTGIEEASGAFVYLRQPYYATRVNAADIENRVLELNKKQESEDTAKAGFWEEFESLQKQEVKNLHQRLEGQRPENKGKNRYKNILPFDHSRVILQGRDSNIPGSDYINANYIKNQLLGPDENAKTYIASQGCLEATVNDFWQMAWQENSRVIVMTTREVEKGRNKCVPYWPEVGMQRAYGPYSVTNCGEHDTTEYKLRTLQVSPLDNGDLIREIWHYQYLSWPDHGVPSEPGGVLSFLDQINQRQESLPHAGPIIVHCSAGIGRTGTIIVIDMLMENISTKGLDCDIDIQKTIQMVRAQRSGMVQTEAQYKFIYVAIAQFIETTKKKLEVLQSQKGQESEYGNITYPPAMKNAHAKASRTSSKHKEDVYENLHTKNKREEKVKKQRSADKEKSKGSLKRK

SMILES: COc1cccc(-c2nnc3n(Cc4ccccc4Cl)c(=O)c4ccccc4n23)c1O
IC50 [1]: 60 µM

IC50 [2]: 19 µM | IC50 [3]: 30 µM
SMILES: O=C1/C(=N\Nc2ccc(S(=O)(=O)O)cc2)C(c2ccc([N+](=O)[O-])cc2)=NN1c1ccccc1

SMILES: O=S(=O)(O)c1ccc2cc(/N=N/c3cc(S(=O)(=O)O)c4cccnc4c3O)ccc2c1
IC50 [4]: 0.355 µM | IC50 [5]: 1.69 µM

IC50 [6]: 0.8 µM
SMILES: O=C1Nc2ccc(S(=O)(=O)O)cc2/C1=N/Nc1ccccc1[N+](=O)[O-]

Reference: ChEMBL document CHEMBL5233259, “Medicinal chemistry strategies for the development of protein tyrosine phosphatase SHP2 inhibitors and PROTAC degraders” (Eur J Med Chem, 2020)
